# Patent publication US11053204B2, “Pyrimidinyloxy benzene derivatives as herbicides” (FMC Corporation, priority 2015, dated 2021)
# Key:
# Assay type in all cases: in vivo
# kochia (Kochia scoparia) [1] = test: Test A preemergence, visual injury rating
# Summary of the method: (§1)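 Pre- and postemergence greenhouse screen. Soil: loam + sand. Spray carrier: solvent mixture, non-phytotoxic, with surfactant. Post timing at 1–2 leaves, height 2–10 cm. Readout: visual injury on a 0–100 scale roughly 10 days after application, untreated plants as reference.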
# [2] = tested on: Italian ryegrass (Lolium multiflorum); test: Test A preemergence, visual injury rating
# Summary of the method: as §1
# [3] = tested on: ragweed (common ragweed, Ambrosia elatior); test: Test A preemergence, visual injury rating
# Summary of the method: as §1
# [4] = tested on: barnyardgrass (Echinochloa crus-galli); test: Test A preemergence, visual injury rating
# Summary of the method: as §1
# [5] = tested on: giant foxtail (Setaria faberii); test: Test A preemergence, visual injury rating
# Summary of the method: as §1
# [6] = tested on: pigweed (Amaranthus retroflexus); test: Test A preemergence, visual injury rating
# Summary of the method: as §1
# kochia (Kochia scoparia) [7] = test: Test A postemergence, visual injury rating
# Summary of the method: as §1
# [8] = tested on: Italian ryegrass (Lolium multiflorum); test: Test A postemergence, visual injury rating
# Summary of the method: as §1
# corn (Zea mays) = test: Test A postemergence, visual injury rating
# Summary of the method: as §1
# [9] = tested on: blackgrass (Alopecurus myosuroides); test: Test A postemergence, visual injury rating
# Summary of the method: as §1
# [10] = tested on: ragweed (common ragweed, Ambrosia elatior); test: Test A postemergence, visual injury rating
# Summary of the method: as §1
# [11] = tested on: barnyardgrass (Echinochloa crus-galli); test: Test A postemergence, visual injury rating; settings: 0 is no effect, 100 is complete control; for Barnyardgrass plant response rating: 0 to 100 scale, approximately 10 days
# Summary of the method: as §1
# [12] = tested on: giant foxtail (Setaria faberii); test: Test A postemergence, visual injury rating
# Summary of the method: as §1
# [13] = tested on: galium (catchweed bedstraw, Galium aparine); test: Test A postemergence, visual injury rating
# Summary of the method: as §1
# [14] = tested on: pigweed (Amaranthus retroflexus); test: Test A postemergence, visual injury rating
# Summary of the method: as §1
# [15] = tested on: wheat (Triticum aestivum); test: Test A postemergence, visual injury rating
# Summary of the method: as §1
# [16] = tested on: barnyardgrass (Echinochloa crus-galli); test: Test B flooded paddy test, plant response rating; settings: 250 g ai/ha; Flood; scale of 0 to 100 where 0 is no effect and 100 is complete control; 13 to 15 days
# Summary of the method: (§2)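 Under a constant 3 cm flood, test compounds went directly into the paddy water. Following 13 to 15 days of greenhouse growth, treated species and controls were compared by eye.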
# rice (Oryza sativa) = test: Test B flooded paddy test, plant response rating; settings: 250 g ai/ha; Flood; scale of 0 to 100 where 0 is no effect and 100 is complete control; 13 to 15 days
# Summary of the method: as §2
# [17] = tested on: sedge, umbrella (small-flower umbrella sedge, Cyperus difformis); test: Test B flooded paddy test, plant response rating; settings: 250 g ai/ha; Flood; scale of 0 to 100 where 0 is no effect and 100 is complete control; 13 to 15 days
# Summary of the method: as §2
# [18] = tested on: ducksalad (Heteranthera limosa); test: Test B flooded paddy test, plant response rating; settings: 250 g ai/ha; Flood; scale of 0 to 100 where 0 is no effect and 100 is complete control; 13 to 15 days
# Summary of the method: as §2
# [19] = 31 g ai/ha, 0 to 100 scale, 0 no effect, 100 complete control
# [20] = 125 g ai/ha, 0 to 100 scale (0 no effect, 100 complete control)
# [21] = 31 g ai/ha, 0 to 100 scale, 0 is no effect, 100 is complete control, approximately 10 days
# [22] = 125 g ai/ha, 0 is no effect, 100 is complete control
# [23] = 31 g ai/ha, 0 to 100 scale (0 no effect, 100 complete control)
# [24] = 125 g ai/ha, 0 to 100 scale, 0 is no effect, 100 is complete control, approximately 10 days
structure (smiles),measurement,setting,value
CN(CCC(F)(F)F)C(=O)c1c(Br)cccc1Oc1ncc(Cl)cn1 [Compound 19],"Plant response rating, Kochia",kochia (Kochia scoparia) [1]; [19],0
same,Kochia plant response rating,kochia (Kochia scoparia) [1]; [20],20
same,"Plant response rating, Ryegrass, Italian",[2]; [19],0
same,"Ryegrass, Italian plant response rating",[2]; [20],0
same,"Plant response rating, Ragweed",[3]; [19],0
same,Ragweed plant response rating,[3]; [20],0
same,"Plant response rating, Barnyardgrass",[4]; [19],0
same,Barnyardgrass plant response rating,[4]; [20],0
same,"Plant response rating, Foxtail, Giant",[5]; [19],0
same,"Foxtail, Giant plant response rating",[5]; [20],0
same,"Plant response rating, Pigweed",[6]; [19],0
same,Pigweed plant response rating,[6]; [20],20
same,Kochia plant response rating,kochia (Kochia scoparia) [7]; [21],0
same,Kochia plant response rating (0 to 100 scale),kochia (Kochia scoparia) [7]; [22],0
same,"Ryegrass, Italian plant response rating",[8]; [21],0
same,"Ryegrass, Italian plant response rating (0 to 100 scale)",[8]; [22],0
same,Corn plant response rating,corn (Zea mays); [21],0
same,Corn plant response rating (0 to 100 scale),corn (Zea mays); [22],0
same,Blackgrass plant response rating,[9]; [21],0
same,Blackgrass plant response rating (0 to 100 scale),[9]; [22],0
same,Ragweed plant response rating,[10]; [21],0
same,Ragweed plant response rating (0 to 100 scale),[10]; [22],0
same,Barnyardgrass plant response rating,[11]; 31 g ai/ha,0
same,Barnyardgrass plant response rating (0 to 100 scale),[11]; 125 g ai/ha,0
same,"Foxtail, Giant plant response rating",[12]; [21],0
same,"Foxtail, Giant plant response rating (0 to 100 scale)",[12]; [22],0
same,Galium plant response rating,[13]; [21],0
same,Galium plant response rating (0 to 100 scale),[13]; [22],0
same,Pigweed plant response rating,[14]; [21],10
same,Pigweed plant response rating (0 to 100 scale),[14]; [22],10
same,Wheat plant response rating,[15]; [21],0
same,Wheat plant response rating (0 to 100 scale),[15]; [22],0
same,"Plant response rating, Barnyardgrass",[16],0
same,"Plant response rating, Rice",rice (Oryza sativa),0
same,"Plant response rating, Sedge, Umbrella",[17],0
same,"Plant response rating, Ducksalad",[18],0
N#Cc1cccc(Oc2ncc(Cl)cn2)c1C(=O)CCCC(F)(F)F [Compound 133],"Plant response rating, Kochia",kochia (Kochia scoparia) [1]; [19],0
same,"Plant response rating, Kochia",kochia (Kochia scoparia) [1]; [20],10
same,"Plant response rating, Ryegrass, Italian",[2]; [19],0
same,"Plant response rating, Ryegrass, Italian",[2]; [20],0
same,"Plant response rating, Ragweed",[3]; [19],0
same,"Plant response rating, Ragweed",[3]; [20],0
same,"Plant response rating, Barnyardgrass",[4]; [19],0
same,"Plant response rating, Barnyardgrass",[4]; [20],30
same,"Plant response rating, Foxtail, Giant",[5]; [19],0
same,"Plant response rating, Foxtail, Giant",[5]; [20],90
same,"Plant response rating, Pigweed",[6]; [19],70
same,"Plant response rating, Pigweed",[6]; [20],100
same,Kochia plant response rating,kochia (Kochia scoparia) [7]; [23],0
same,Kochia plant response rating,kochia (Kochia scoparia) [7]; [24],20
same,"Ryegrass, Italian plant response rating",[8]; [23],0
same,"Ryegrass, Italian plant response rating",[8]; [24],0
same,Corn plant response rating,corn (Zea mays); [23],0
same,Corn plant response rating,corn (Zea mays); [24],20
same,Blackgrass plant response rating,[9]; [23],0
same,Blackgrass plant response rating,[9]; [24],0
same,Ragweed plant response rating,[10]; [23],0
same,Ragweed plant response rating,[10]; [24],0
same,Barnyardgrass plant response rating,[11]; 31 g ai/ha,10
same,Barnyardgrass plant response rating,[11]; 125 g ai/ha,30
same,"Foxtail, Giant plant response rating",[12]; [23],10
same,"Foxtail, Giant plant response rating",[12]; [24],30
same,Galium plant response rating,[13]; [23],30
same,Galium plant response rating,[13]; [24],50
same,Pigweed plant response rating,[14]; [23],30
same,Pigweed plant response rating,[14]; [24],50
same,Wheat plant response rating,[15]; [23],0
same,Wheat plant response rating,[15]; [24],0
same,"Plant response rating, Barnyardgrass",[16],0
same,"Plant response rating, Rice",rice (Oryza sativa),30
same,"Plant response rating, Sedge, Umbrella",[17],0
same,"Plant response rating, Ducksalad",[18],0
